Biological target: MelBSt; Salmonella typhimurium melibiose permease (Salmonella enterica, UniProt P30878)
Test: CD thermal denaturation at […] nm, purified in DDM
Assay type: binding
Settings: 50 mM melibiose, 100 mM LiCl, 20 mM NaPi pH 7.5, 10% glycerol, 0.01% DDM

Sequence of MelBSt; Salmonella typhimurium melibiose permease (P30878 whole entry): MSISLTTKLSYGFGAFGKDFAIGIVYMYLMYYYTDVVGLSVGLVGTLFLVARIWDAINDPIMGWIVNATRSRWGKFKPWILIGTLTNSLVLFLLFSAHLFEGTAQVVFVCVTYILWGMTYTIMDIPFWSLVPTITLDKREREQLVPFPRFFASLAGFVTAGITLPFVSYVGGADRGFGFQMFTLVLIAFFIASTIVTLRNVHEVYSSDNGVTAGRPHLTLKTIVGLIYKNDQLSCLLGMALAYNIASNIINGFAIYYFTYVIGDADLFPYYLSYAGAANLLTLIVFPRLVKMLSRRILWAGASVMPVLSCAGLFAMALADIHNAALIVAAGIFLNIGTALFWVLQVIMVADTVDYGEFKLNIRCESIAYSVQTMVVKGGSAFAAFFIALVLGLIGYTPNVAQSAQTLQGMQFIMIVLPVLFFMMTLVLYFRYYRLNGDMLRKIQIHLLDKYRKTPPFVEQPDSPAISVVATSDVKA

Q: `OC[C@H]1O[C@H](OC[C@H]2OC(O)[C@H](O)[C@@H](O)[C@@H]2O)[C@H](O)[C@@H](O)[C@H]1O` (stereo partly shown) [melibiose] was tested. Which WT did it give?
A: 63.87 ± 0.04 °C
